What is called IC50 is the midpoint of a concentration-inhibition curve.

The structures appear in SMILES notation.

Sequence of GluA1o-γ8 (GRIA1o-CACNG8 fusion construct) (P42261 other isoform, or with tags, fused parts or gaps): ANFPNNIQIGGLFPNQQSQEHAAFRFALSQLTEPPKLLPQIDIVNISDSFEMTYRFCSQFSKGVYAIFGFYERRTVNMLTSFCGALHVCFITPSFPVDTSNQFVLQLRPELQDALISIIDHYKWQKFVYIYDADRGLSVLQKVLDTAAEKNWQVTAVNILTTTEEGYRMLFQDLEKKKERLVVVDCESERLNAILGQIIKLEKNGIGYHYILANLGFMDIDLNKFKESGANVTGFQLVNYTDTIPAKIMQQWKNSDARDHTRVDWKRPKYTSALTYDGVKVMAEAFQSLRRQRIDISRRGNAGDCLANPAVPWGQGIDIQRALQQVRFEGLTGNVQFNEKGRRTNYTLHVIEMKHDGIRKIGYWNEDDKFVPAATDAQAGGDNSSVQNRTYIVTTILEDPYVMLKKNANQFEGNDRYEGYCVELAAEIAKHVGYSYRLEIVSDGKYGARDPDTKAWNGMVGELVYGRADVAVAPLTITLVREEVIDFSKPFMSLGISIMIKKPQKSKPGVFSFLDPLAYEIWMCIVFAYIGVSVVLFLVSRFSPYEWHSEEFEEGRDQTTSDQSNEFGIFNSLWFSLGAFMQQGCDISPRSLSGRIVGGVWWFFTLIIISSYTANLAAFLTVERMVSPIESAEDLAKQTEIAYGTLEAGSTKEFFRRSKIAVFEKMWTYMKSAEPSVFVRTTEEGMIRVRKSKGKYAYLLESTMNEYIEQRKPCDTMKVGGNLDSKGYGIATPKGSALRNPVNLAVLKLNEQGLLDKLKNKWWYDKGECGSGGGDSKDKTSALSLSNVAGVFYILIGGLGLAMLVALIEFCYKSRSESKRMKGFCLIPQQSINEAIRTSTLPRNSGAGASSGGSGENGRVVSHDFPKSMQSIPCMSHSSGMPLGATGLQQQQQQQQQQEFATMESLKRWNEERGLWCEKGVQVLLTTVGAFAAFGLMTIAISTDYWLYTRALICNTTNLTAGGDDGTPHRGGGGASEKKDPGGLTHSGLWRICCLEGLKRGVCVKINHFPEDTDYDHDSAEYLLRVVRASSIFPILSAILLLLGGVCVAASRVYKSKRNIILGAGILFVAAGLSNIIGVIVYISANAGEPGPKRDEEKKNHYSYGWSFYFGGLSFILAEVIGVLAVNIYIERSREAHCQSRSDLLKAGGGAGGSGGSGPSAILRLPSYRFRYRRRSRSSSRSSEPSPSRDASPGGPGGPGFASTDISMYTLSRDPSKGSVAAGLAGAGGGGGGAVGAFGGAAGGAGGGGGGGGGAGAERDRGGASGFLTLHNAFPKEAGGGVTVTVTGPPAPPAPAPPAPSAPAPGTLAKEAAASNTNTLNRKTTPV

The target of this test is GluA1o-γ8 (GRIA1o-CACNG8 fusion construct) (Homo sapiens (Human), UniProt P42261+Q8WXS5). The test can be described thus: Calcium flux assay (FLIPR), inhibition of TARP γ8 dependent AMPA receptor activity. Type of test: cell-based. To be noted: GluA1o-γ8 (GRIA1o-CACNG8 fusion) in HEK293 cells, calcium flux after 15 μM glutamate. The gist of the method:
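Glutamate (15 μM) was added to a stable HEK293 line carrying the GluA1o–γ8 fusion, which had been preincubated with compound and calcium dye in HEPES buffer, pH 7.4. Normalized FLIPR fluorescence (no compound vs 10 μM CP465022) was fitted with four parameters; pIC50 is the midpoint's negative log.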
(In general: Calcium assays in cells follow changes in intracellular calcium, usually with a dye or a luminescent sensor.)
Regarding `O=c1[nH]c2ccc(-n3c(C4CCOCC4)nc4ccc(C(F)(F)F)nc43)cc2o1` [Example 160, 6-[2-Tetrahydropyran-4-yl-5-(trifluoromethyl)imidazo[4,5-b]pyridin-3-yl]-3H-1,3-benzoxazol-2-one], the IC50 is 1000 nM.
Take `CCOCc1nc2ccc(C(F)(F)F)nc2n1-c1ccc2[nH]c(=O)oc2c1` [Example 162, 6-[2-(Ethoxymethyl)-5-(trifluoromethyl)imidazo[4,5-b]pyridin-3-yl]-3H-1,3-benzoxazol-2-one]: the IC50 is 631 nM.
Regarding `CC(C)(C)c1nc2ccc(C(F)(F)F)nc2n1-c1ccc2[nH]c(=O)oc2c1` [Example 163, 6-[2-tert-Butyl-5-(trifluoromethyl)imidazo[4,5-b]pyridin-3-yl]-3H-1,3-benzoxazol-2-one], the IC50 is 158 nM.
In the case of `O=C1Cc2cc(-n3c(-c4ccnc(F)c4)nc4ccc(C(F)(F)F)nc43)ccc2N1` [Example 164, 5-[2-(2-Fluoro-4-pyridyl)-5-(trifluoromethyl)imidazo[4,5-b]pyridin-3-yl]indolin-2-one], the IC50 was 1.26 nM.
As for `Fc1cc(-c2nc3ccc(C(F)(F)F)nc3n2-c2ccc3[nH]ncc3c2)ccn1` [Example 165, 2-(2-Fluoro-4-pyridyl)-3-(1H-indazol-5-yl)-5-(trifluoromethyl)imidazo[4,5-b]pyridine], the IC50 was 1.58 nM.
Then `O=C1Cc2cc(-n3c(C4CC(F)C4)nc4ccc(C(F)(F)F)nc43)ccc2N1` (centres unmarked) [Example 166, 5-[2-(3-Fluorocyclobutyl)-5-(trifluoromethyl)imidazo[4,5-b]pyridin-3-yl]indolin-2-one], with 10 nM; and `CC[C@@H](C)c1nc2ccc(C(F)(F)F)nc2n1-c1ccc2[nH]ncc2c1` [Example 167, (R)-3-(1H-Indazol-5-yl)-2-sec-butyl-5-(trifluoromethyl)imidazo[4,5-b]pyridine], with 2 nM; and `CC[C@H](C)c1nc2ccc(C(F)(F)F)nc2n1-c1ccc2[nH]ncc2c1` [Example 168, (S)-3-(1H-Indazol-5-yl)-2-sec-butyl-5-(trifluoromethyl)imidazo[4,5-b]pyridine], with 6.31 nM.
Take `Fc1ccc(-c2nc3ccc(C(F)(F)F)nc3n2-c2ccc3[nH]ncc3c2)nc1` [Example 169, 2-(5-Fluoro-2-pyridyl)-3-(1H-indazol-5-yl)-5-(trifluoromethyl)imidazo[4,5-b]pyridine]: the IC50 was 3.16 nM.
Then `CC(C)c1ccc2nc(C(F)(F)F)n(-c3ccc4[nH]ncc4c3)c2n1` [Example 170, 3-(1H-Indazol-5-yl)-5-isopropyl-2-(trifluoromethyl)imidazo[4,5-b]pyridine], with 0.631 nM; and `CC(C)(C)c1ccc2nc(C(F)(F)F)n(-c3ccc4[nH]ncc4c3)c2n1` [Example 171, 5-tert-Butyl-3-(1H-indazol-5-yl)-2-(trifluoromethyl)imidazo[4,5-b]pyridine], with 3.16 nM.
Regarding `CC(C)NC(=O)c1nc2ccc(C(F)(F)F)nc2n1-c1ccc2[nH]ncc2c1` [Example 172, 3-(1H-Indazol-5-yl)-N-isopropyl-5-(trifluoromethyl)imidazo[4,5-b]pyridine-2-carboxamide], the IC50 is 3980 nM.
Take `O=C(c1nc2ccc(C(F)(F)F)nc2n1-c1ccc2[nH]ncc2c1)N1CCCC1` [Example 173, [3-(1H-Indazol-5-yl)-5-(trifluoromethyl)imidazo[4,5-b]pyridin-2-yl]-pyrrolidin-1-yl-methanone]: the IC50 is 10000 nM.
For the compound `FC(F)(F)c1ccc(-c2nc3cccnc3n2-c2ccc3[nH]ncc3c2)cc1` [Example 176, 3-(1H-Indazol-5-yl)-2-[4-(trifluoromethyl)phenyl]imidazo[4,5-b]pyridine], the IC50 was 10000 nM.
Take `FC(F)(F)Oc1ccc(-c2nc3cccnc3n2-c2ccc3[nH]ncc3c2)cc1` [Example 177, 3-(1H-Indazol-5-yl)-2-[4-(trifluoromethoxy)phenyl]imidazo[4,5-b]pyridine]: the IC50 was 12600 nM.
Consider `O=C1Cc2cc(-n3c(-c4ccc(C(F)(F)F)cc4)nc4cccnc43)ccc2N1` [Example 178, 5-[2-[4-(Trifluoromethyl)phenyl]imidazo[4,5-b]pyridin-3-yl]indolin-2-one], for which the IC50 is 3160 nM.
For the compound `CC(C)(C)OC(=O)N1CC(c2nc3ccc(C(F)(F)F)nc3n2-c2ccc3c(c2)CC(=O)N3)C1` [Example 179, tert-Butyl 3-[3-(2-oxoindolin-5-yl)-5-(trifluoromethyl)imidazo[4,5-b]pyridin-2-yl]azetidine-1-carboxylate], the IC50 was 3160 nM.
The same measure for `O=C1Cc2cc(-n3c(C4CNC4)nc4ccc(C(F)(F)F)nc43)ccc2N1` [Example 180, 5-[2-(Azetidin-3-yl)-5-(trifluoromethyl)imidazo[4,5-b]pyridin-3-yl]indolin-2-one]: 2000 nM; for `Cc1ccc2nc(C)n(-c3ccc4c(c3)CC(=O)N4)c2n1` [Example 181, 5-(2,5-Dimethylimidazo[4,5-b]pyridin-3-yl)indolin-2-one]: 2510 nM; for `COC(=O)CCc1nc2ccc(C(F)(F)F)nc2n1-c1ccc2c(c1)CC(=O)N2` [Example 183, Methyl 3-[3-(2-oxoindolin-5-yl)-5-(trifluoromethyl)imidazo[4,5-b]pyridin-2-yl]propanoate]: 2000 nM.
Then `CC(C)c1nc2ccc(C(F)(F)F)nc2n1-c1cc(Br)c2[nH]ncc2c1` [Example 184, 3-(7-Bromo-1H-indazol-5-yl)-2-isopropyl-5-(trifluoromethyl)imidazo[4,5-b]pyridine], with 0.01 nM; and `Cn1c(=O)sc2cc(-n3c(C4CCC4)nc4ccc(C(F)(F)F)nc43)ccc21` [Example 185, 6-(2-Cyclobutyl-5-(trifluoromethyl)-3H-imidazo[4,5-b]pyridin-3-yl)-3-methylbenzo[d]thiazol-2(3H)-one], with 100 nM; and `FC(F)(F)c1ccc2nc(C(F)(F)F)n(-c3cc(Br)c4[nH]ncc4c3)c2n1` [Example 187, 3-(7-Bromo-1H-indazol-5-yl)-2,5-bis(trifluoromethyl)imidazo[4,5-b]pyridine], with 0.01 nM.
Then `FC(F)(F)c1ccc2nc(C(F)(F)F)n(-c3cc(-c4ccccc4)c4[nH]ncc4c3)c2n1` [Example 188, 3-(7-Phenyl-1H-indazol-5-yl)-2,5-bis(trifluoromethyl)-3H-imidazo[4,5-b]pyridine], with 316 nM; and `C=Cc1cc(-n2c(C(F)(F)F)nc3ccc(C(F)(F)F)nc32)cc2cn[nH]c12` [Example 189, 2,5-Bis(trifluoromethyl)-3-(7-vinyl-1H-indazol-5-yl)-3H-imidazo[4,5-b]pyridine], with 0.0398 nM; and `O=c1[nH]c2ccc(-n3cnc4ccc(C(F)(F)F)nc43)cc2s1` [Example 190, 6-(5-(Trifluoromethyl)-3H-imidazo[4,5-b]pyridin-3-yl)benzo[d]thiazol-2(3H)-one], with 316 nM.
For `CC(C)c1nc2ccc(C(F)(F)F)nc2n1-c1ccc2[nH]nc(F)c2c1` [Example 191, 3-(3-Fluoro-1H-indazol-5-yl)-2-isopropyl-5-(trifluoromethyl)imidazo[4,5-b]pyridine], the IC50 is 3.98 nM.
For the compound `FC(F)(F)c1nc2ccc(Cl)nc2n1-c1ccc2[nH]ncc2c1` [Example 192, 5-Chloro-3-(1H-indazol-5-yl)-2-(trifluoromethyl)imidazo[4,5-b]pyridine], the IC50 was 2.51 nM.
As for `CCc1ccc2nc(C(F)(F)F)n(-c3ccc4[nH]ncc4c3)c2n1` [Example 193, 5-Ethyl-3-(1H-indazol-5-yl)-2-(trifluoromethyl)imidazo[4,5-b]pyridine], the IC50 was 1.58 nM.
`Cc1cc(-n2cnc3ccc(C(F)(F)F)nc32)cc2cn[nH]c12` [Example 194, 3-(7-Methyl-1H-indazol-5-yl)-5-(trifluoromethyl)imidazo[4,5-b]pyridine]: the IC50 was 20 nM.
On to `Cc1cc(-n2c(-c3ccc(F)cc3)nc3ccc(C(F)(F)F)nc32)cc2cn[nH]c12` [Example 195, 2-(4-Fluorophenyl)-3-(7-methyl-1H-indazol-5-yl)-5-(trifluoromethyl)imidazo[4,5-b]pyridine], for which the IC50 was 0.0126 nM.
For `CCOc1nc2ccc(C(F)(F)F)nc2n1-c1ccc2[nH]nc(F)c2c1` [Example 196, 2-Ethoxy-3-(3-fluoro-1H-indazol-5-yl)-5-(trifluoromethyl)imidazo[4,5-b]pyridine], the IC50 is 25.1 nM.
In the case of `Fc1n[nH]c2ccc(-n3c(C4CC4)nc4ccc(C(F)(F)F)nc43)cc12` [Example 197, 2-Cyclopropyl-3-(3-fluoro-1H-indazol-5-yl)-5-(trifluoromethyl)imidazo[4,5-b]pyridine], the IC50 was 6.31 nM.
Turning to `Cc1cc(-n2c(C(C)C)nc3ccc(C(F)(F)F)nc32)cc2cn[nH]c12` [Example 198, 2-Isopropyl-3-(7-methyl-1H-indazol-5-yl)-5-(trifluoromethyl)imidazo[4,5-b]pyridine], the IC50 was 0.0316 nM.
As for `FC(F)(F)c1nc2cccnc2n1-c1cc(Cl)c2[nH]ncc2c1` [Example 199, 3-(7-Chloro-1H-indazol-5-yl)-2-(trifluoromethyl)imidazo[4,5-b]pyridine], the IC50 was 2 nM.
For `CC(C)c1nc2cccnc2n1-c1cc(Cl)c2[nH]ncc2c1` [Example 200, 3-(7-Chloro-1H-indazol-5-yl)-2-isopropyl-imidazo[4,5-b]pyridine], the IC50 is 6.31 nM.
Then `Cc1ccnc2c1nc(C(F)(F)F)n2-c1ccc2[nH]ncc2c1` [Example 201, 3-(1H-indazol-5-yl)-7-methyl-2-(trifluoromethyl)imidazo[4,5-b]pyridine], with 100 nM; and `Cc1ccnc2c1nc(C(F)(F)F)n2-c1cc(Cl)c2[nH]ncc2c1` [Example 202, 3-(7-Chloro-1H-indazol-5-yl)-7-methyl-2-(trifluoromethyl)imidazo[4,5-b]pyridine], with 0.631 nM.

These data come from patent publication US11312712B2, “Azabenzimidazoles and their use as AMPA receptor modulators” (Janssen Pharmaceutica NV, priority 2015, dated 2022).
